As usually defined, the MIC is the lowest concentration that inhibits growth of the organism. Low readings indicate greater potency, high ones weaker potency.

Data on eight compounds can be found in patent US4117142A, “Disubstituted triphenylmethylmidazoles for treating mycotic infections” (Bayer Aktiengesellschaft, priority 1972, dated 1978).

In one test the test system is Aspergillus niger. Kind of test: Series dilution test in vitro, minimum inhibitory concentration, Aspergillus niger. The format is cell-based. The conditions noted are these: 28° C, 24 to 96 hours. As to the method: (§1) Determination of the antimycotic spectrum of activity in vitro by the series dilution test.
(§2) The nutrient media used were Sabouraud's milieu d'epreuve for dermatophyties and molds and meat broth-glucose bouillon for blastomyces and biphase fungi.
(§3) The incubation temperature was 28° C and the incubation time was 24 to 96 hours.

Test [1] relates to Candida albicans. Description: Candidosis in mice, oral treatment. The settings on record: orally 50, 75, 100 and 150 mg/kg, one hour before and 7 hours after infection; untreated control ~5% survival. The format is in vivo, Mice of the type SPF-C1. As for the experimental part: Description of the experiment:
Mice of the type SPF-C1 were infected intravenously with 1-2 × 10^6 logarithmically-growing Candida cells suspended in physiological sodium chloride solution.
One hour before, and 7 hours after, the infection the animals are treated orally with 50, 75, 100 and 150 mg/kg of body weight of the preparations.
Untreated animals died of the infection 3 to 6 days after infection. The survival rate on the 6th day after infection was ~ 5% in untreated control animals.

For test [2], the system named is Candida Albicans. Description: Series dilution test in vitro, minimum inhibitory concentration, Candida albicans. The format is cell-based. The settings on record: 28° C, 24 to 96 hours. As to the method: as §1, §2, §3
In test [3] the test system is Trichophyton mentagrophytes. Kind of test: Series dilution test in vitro, minimum inhibitory concentration, Trichophyton mentagrophytes. The format is cell-based. The conditions noted are these: 28° C, 24 to 96 hours. As to the method:
as §1, §2, §3

In brackets after ≈: the same amount, converted by molar mass.

For the compound `Clc1ccccc1C(c1ccccc1)(c1ccccc1Cl)n1ccnc1` [Example 9, 1-(2-Chlorophenyl-2'-chlorophenyl-phenyl)-methyl-imidazole], the MIC against Aspergillus niger (w.s. = with 30% serum added) was 10 µg/mL (≈ 26.4 µM); with Candida Albicans [2] (n.s. = no added serum), 1 µg/mL (≈ 2.64 µM); in test [3] (n.s. = no added serum), less than 1 µg/mL; in test [3] (w.s. = with 30% serum added), 4 µg/mL (≈ 10.5 µM). For the same compound, the “Action on candidosis in Mice (survival on the 6th day after infection)” value (“Action on candidosis in Mice” for short) in the test on Candida albicans [1] is listed as “++++ (good action = >80% survival on the 6th day after infection)”.

Regarding `Cc1ccc(C(c2ccccc2)(c2ccccc2)n2ccnc2)c(C)c1` [Example 2, 1-(2,4-Dimethylphenyl-diphenyl)-methyl-imidazole], the “Action on candidosis in Mice” value in the test with Candida albicans [1] was “+++++ (very good action = >90% survival on the 6th day after infection)”.

Turning to `Clc1cccc(C(c2ccccc2)(c2ccccc2)n2ccnc2)c1Cl` [Example 6, 1-(2,3-Dichlorophenyl-diphenyl)-methyl-imidazole], the “Action on candidosis in Mice” value in the test on Candida albicans [1] is “+++++ (very good action = >90% survival on the 6th day after infection)”.

`Cc1cccc(C(c2ccccc2)(c2ccccc2)n2ccnc2)c1C` [Example 1, 1-(2,3-dimethylphenyl-diphenyl)-methyl-imidazole]: the MIC in the test with Aspergillus niger (n.s. = no added serum) was 4 µg/mL (≈ 11.8 µM); in the test on Aspergillus niger (w.s. = with 30% serum added), 40 µg/mL (≈ 118 µM); against Candida Albicans [2] (n.s. = no added serum), 1 µg/mL (≈ 2.95 µM); in test [3] (n.s. = no added serum), less than 1 µg/mL; in test [3] (w.s. = with 30% serum added), 4 µg/mL (≈ 11.8 µM). Besides, the “Action on candidosis in Mice” value in the test on Candida albicans [1] is “+++++ (very good action = >90% survival on the 6th day after infection)”.

For `Cc1cc(Cl)ccc1C(c1ccccc1)(c1ccccc1)n1ccnc1` [Example 4, 1-(2-Methyl-4-chlorophenyl-diphenyl)-methyl-imidazole], the “Action on candidosis in Mice” value in the test on Candida albicans [1] is reported as “+++++ (very good action = >90% survival on the 6th day after infection)”. Besides, the MIC in the test on Candida Albicans [2] (n.s. = no added serum) was 1 µg/mL (≈ 2.79 µM); with Candida Albicans [2] (w.s. = with 30% serum added), 40 µg/mL (≈ 111 µM); in test [3] (n.s. = no added serum), less than 1 µg/mL; in test [3] (w.s. = with 30% serum added) it was 10 µg/mL (≈ 27.9 µM).

Regarding `Cc1ccc(C)c(C(c2ccccc2)(c2ccccc2)n2ccnc2)c1` [Example 3, 1-(2,5-Dimethylphenyl-diphenyl)-methyl-imidazole], the “Action on candidosis in Mice” value with Candida albicans [1] is reported as “++++ (good action = >80% survival on the 6th day after infection)”. The MIC is 1 µg/mL (≈ 2.95 µM) against Candida Albicans [2] (n.s. = no added serum), less than 1 µg/mL in test [3] (n.s. = no added serum) and 40 µg/mL (≈ 118 µM) in test [3] (w.s. = with 30% serum added).

As to `Clc1cccc(Cl)c1C(c1ccccc1)(c1ccccc1)n1ccnc1` [Example 7, 1-(2,6-Dichlorophenyl-diphenyl)-methyl-imidazole], the “Action on candidosis in Mice” value with Candida albicans [1] was “+++++ (very good action = >90% survival on the 6th day after infection)”. Moreover, the MIC with Candida Albicans [2] (n.s. = no added serum) is 1 µg/mL (≈ 2.64 µM); in test [3] (n.s. = no added serum) it was less than 1 µg/mL; in test [3] (w.s. = with 30% serum added) it was 4 µg/mL (≈ 10.5 µM).

For the compound `Cc1ccccc1C(c1ccccc1)(c1ccccc1C)n1ccnc1` [Example 8, 1-(2-Methylphenyl-2'-methylphenyl-phenyl)-methyl-imidazole], in the test with Candida albicans [1], the “Action on candidosis in Mice” value is listed as “+++++ (very good action = >90% survival on the 6th day after infection)”. For the same compound, the figures for the MIC (against Candida Albicans [2] (n.s. = no added serum); in test [3] (n.s. = no added serum); in test [3] (w.s. = with 30% serum added)) were 1 µg/mL (≈ 2.95 µM), less than 1 µg/mL and 10 µg/mL (≈ 29.5 µM), respectively.
